This is an account of results in patent US4670469A, “Hydroxamic acid and pharmaceutical preparations containing the same” (VEB Arzneimittelwerk Dresden, priority 1983, dated 1987).

Where two headings read alike, the source gives them in different places.

The test system of one assay is guinea pig lung strips. Description: Arachidonic acid-induced spasm of isolated guinea pig lung strips. Particulars: active substance 100 μM. An excerpt: They display in animal experimental tests on isolated lung strips from guinea pigs a pronounced antiasthmatic effect. The testing of the mentioned pharmacological characteristics follows according to the principles of measuring techniques known from the literature, which come into use in modified form (G. M. Drazen et al. G. Clin. Invest. 63 1 (1979); M. W. Schneider and G. M. Drazen Amer. Rev. Resp. Dis. 121 835 (1980); S. S. Yen and W. Kreutner, Agents Actions 10 274 (1980); S. S. Yen Prostaglandins 22, 183 (1981)).
The compounds of Formula I effect a significant restraint on arachidonic acid-induced bronchial constriction (1.5.10^-5 M arachidonic acid) in the guinea pig lung preparations (see, Example 6). Also with the addition of a cyclooxygenase inhibitor to the measuring system this effect was unaltered, and to some extent stronger, detectably. These experimental results permit without a doubt the conclusion that the compounds of Formula I involve inhibitors of the lipoxygerase pathway of arachidonic utilization, and the above described pharmacological effect is grounded upon this mechanism of activity.
The testing of the compounds for antiasthmatic activity follows on isolated lung strips and isolated tracheal rings from guinea pigs according to measuring methods known from the literature (supra) in modified form. The measurements follow in thermostatically controlled organ bath, isotonically using a contraction measuring arrangement with lift receiver, measuring coil, measuring amplifier (inductive measurement with the aid of a high frequency resonant circuit). The gasification follows with air. The suspension solution has the following composition: 39.46 g NaCl, 2.2 g KCl, 6.07 g Tris, 1.0 g CaCl2, 9.9 g glucose, 1.0 ml saturated MgCl2 -solution, 43 ml 1N HCl; pH 7.4.
(a) Activity on spasm of the guinea pig lung strips, induced by exogenous arachidonic acid.
The spasm is triggered by rising concentrations of arachidonic acid (concentrated solution in ethanol, stored in N2 -atmosphere) and is cumulatively measured. […] The active substance caused a highly significant displacement to the right of the Dose-Activity curves for arachidonic acid, visible by a clear elevation of the ED50 - and ED84 -values. The effect can be described through the following activity index: [formula] In an analogous manner, the index i84 is determined from the measured data.

The target of assay [1] is T1, lipoxygenase from rabbit reticulocytes (Oryctolagus cuniculus, UniProt P12530).
T1 construct: The lipoxygenase from rabbit reticulocytes is obtained in electrophoretically and immunologically pure form; from tissue; host or cells: rabbit reticulocytes
T1 sequence (P12530 1-663): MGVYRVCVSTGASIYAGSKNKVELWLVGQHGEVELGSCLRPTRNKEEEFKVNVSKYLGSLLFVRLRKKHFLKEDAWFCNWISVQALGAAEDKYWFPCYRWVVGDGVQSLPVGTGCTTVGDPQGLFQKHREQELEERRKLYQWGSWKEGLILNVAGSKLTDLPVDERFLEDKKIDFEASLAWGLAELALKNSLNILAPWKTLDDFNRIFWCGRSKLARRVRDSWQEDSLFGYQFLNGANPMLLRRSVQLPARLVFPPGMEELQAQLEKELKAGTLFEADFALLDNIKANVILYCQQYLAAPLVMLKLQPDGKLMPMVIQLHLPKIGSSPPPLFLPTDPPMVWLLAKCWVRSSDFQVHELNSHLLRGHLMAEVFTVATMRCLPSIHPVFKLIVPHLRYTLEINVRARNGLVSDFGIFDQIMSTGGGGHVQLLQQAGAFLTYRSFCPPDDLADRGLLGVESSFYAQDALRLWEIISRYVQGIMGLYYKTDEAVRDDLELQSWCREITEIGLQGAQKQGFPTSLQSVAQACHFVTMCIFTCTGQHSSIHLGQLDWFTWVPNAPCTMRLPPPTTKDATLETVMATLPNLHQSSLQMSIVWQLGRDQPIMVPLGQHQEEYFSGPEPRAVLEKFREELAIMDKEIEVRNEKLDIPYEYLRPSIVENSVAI
Description: Inhibition of the activity of lipoxygenase from rabbit reticulocytes (oxygen consumption, Clark electrode). The assay is classed as biochemical. How it is done:
The lipoxygenase from rabbit reticulocytes was obtained in electrophoretically and immunologically pure form according to a technique known from the literature (S. M. Rapoport et al. Methods in Enzymology 71, 430 (1981)). The determination of lipoxygenase activity follows at 25° C. through the polarographic measurement of the oxygen consumption by means of Clark Electrode in a standardized system.
Through variation of the substance concentrations, the titration curves of the inhibition and therefrom the inhibition concentrations (I-value) of the compounds can be determined.
The testing of compounds for antiasthmatic, antiallergenic, inflammation-inhibiting and antithrombotic activity on the basis on the inhibition of the lipoxygenase reaction of the arachidonic acid cascade follows in a molecular/pharmacological test system. […] The lipoxygenase from rabbit reticulocytes is obtained in electrophoretically and immunologically pure form according to the techniques described in the literature (supra). The determination of the lipoxygenase activity follows at 25° C. through the polorographic measurement of oxygen consumption by means of a Clark-electrode in the following system: 0.1M potassiumphosphate, pH 7.4, with 0.2 percent sodium cholate and 0.53 mM linoleic acid. The enzyme concentration in the measurement preparation came to 25 nM. The compounds to be tested are dissolved in methylglycol (freshly distilled in a vacuum) and pre-incubated for 15 minutes at the measuring temperature in the absence of sodium cholate and linoleic acid. […] The enzyme reaction is started by the addition of sodium cholate and linoleic acid.

For a further assay, the target named is lipoxygenase from peas. Description: Inhibition of lipoxygenase from peas. The assay is classed as biochemical. To be noted: read-out: I50. As for the experimental part: The inhibition of thrombocyte aggregation is likewise ascribed to the inhibition of lipoxygenase in the cells. It has thus been shown that the arachidonate-lipoxygenase activity of a microsome-free lysate of human thrombocyte concentrates is inhibited to the extent of 100% by means of 0.25 mM salicylhydroxamic acid. Moreover, it has been shown that also a series of further lipoxygenases are inhibited by means of the here described hydroxamic acids. The lipoxygenase from soybeans reacts the most insensitive, i.e. it is inhibited by means of 1 mM salicylhydroxamic acid at pH 7.4 to an extent of 60% and by means of 0.4 mM 2-hydroxy-1-napthylhydroxamic acid to an extent of 54%. In contrast, for the lipoxygenase from peas which come closer in their characteristics to human lipoxygenase, the following I50 -values are provided: salicyl hydroxamic acid, 5 μM, 2-hydroxy-1-napthylhydroxamic acid, 2 μM, 2(2'-napthoxy)-acethydroxamic acid, 2 μM. Moreover it has been shown that the formation lipoxygenase products of arachidonic acid in in vitro cultivated aorta endothelial cells of calves is hindered through 0.1 mM 2-hydroxy-1-napthylhydroxamic acids.

As to `O=C(NO)c1ccccc1O` [salicylhydroxamic acid], in the assay with guinea pig lung strips, the “activity index i50 (displacement of arachidonic acid ED50)” value is recorded as 1.9 and the “activity index i84 (displacement of arachidonic acid ED84)” value turned out to be 8.5. The IC50 in assay [1] worked out at 20 µM. On lipoxygenase from peas, the IC50 worked out at 5 µM.
With `O=C(COc1ccc2ccccc2c1)NO` [2(2'-naphthoxy)-acethydroxamic acid], in the assay on guinea pig lung strips, the “activity index i50 (displacement of arachidonic acid ED50)” value is on record as 5.8 and the “activity index i84 (displacement of arachidonic acid ED84)” value amounted to 7.1. In addition, the IC50 in assay [1] (25° C., pH 7.4, 0.53 mM linoleic acid, 15 min pre-incubation, read-out: I50) came to 2.5 µM. Further, the IC84 in assay [1] (25° C., pH 7.4, 0.53 mM linoleic acid, 15 min pre-incubation, read-out: I84) was determined as 9 µM. Further, the IC50 at lipoxygenase from peas was found to be 2 µM.
